Experiments:
[1] = target: CDK2/Cyclin A (Homo sapiens, UniProt P24941); test: Inhibition of CDK2/Cyclin A Retinoblastoma Kinase Activity; type: biochemical; settings: at 0.03 μM
Procedure, shortened: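 Radiometric filter-binding readout of phosphate transfer to an Rb substrate fragment by purified CDK2/truncated cyclin A at 10 or 19 nM. Run at pH 7.4 with 25 μM ATP, 30 °C, 60–75 min, linear rates; background without enzyme subtracted, Ki from competitive-inhibition models.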

[2] = target: human CDK4 and genetically truncated (1-264) cyclin D3 (Homo sapiens, UniProt P11802); test: Inhibition of CDK4/Cyclin D Retinoblastoma Kinase Activity; type: biochemical; settings: at 0.03 μM
Procedure, shortened: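 Apparent Ki values come from competitive or competitive tight-binding inhibition fits of background-corrected 32P/33P incorporation into His-tagged Rb fragment (386-928), captured on nitrocellulose. Reaction: 5 nM insect-cell-expressed human CDK4 with cyclin D3 (1-264), 25 μM ATP, pH 7.4 HEPES, 2% DMSO, 30° C., 20 min, extended to 60 min for tight-binding inhibitors.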

[3] = tested on: HCT-116 cell line; test: Inhibition of cell growth, tetrazolium salt (MTT) assay; type: cell-based; settings: HCT-116 cells
Procedure, shortened: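 McCoy's 5A cultures; 4 h pre-incubation; compound dilutions in 0.5% v/v DMSO; 3–5 d, 37° C, 5% CO2; MTT 0.2 mg/mL final, 4 h; formazan dissolved in DMSO, A540; vs 0.5% DMSO vehicle.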

Chain of human CDK4 and genetically truncated (1-264) cyclin D3 (P11802 whole entry, the tested form may be a part): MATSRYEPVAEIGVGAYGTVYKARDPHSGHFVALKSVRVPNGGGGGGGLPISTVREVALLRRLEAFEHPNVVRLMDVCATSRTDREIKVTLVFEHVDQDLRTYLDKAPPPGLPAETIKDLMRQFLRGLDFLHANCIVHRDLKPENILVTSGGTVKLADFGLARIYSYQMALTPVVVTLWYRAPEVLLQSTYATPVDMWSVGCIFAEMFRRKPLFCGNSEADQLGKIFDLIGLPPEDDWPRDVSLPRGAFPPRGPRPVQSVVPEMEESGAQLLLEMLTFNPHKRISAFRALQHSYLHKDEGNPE
Chain of human CDK4 and genetically truncated (1-264) cyclin D3 (P30281 1-264 partner): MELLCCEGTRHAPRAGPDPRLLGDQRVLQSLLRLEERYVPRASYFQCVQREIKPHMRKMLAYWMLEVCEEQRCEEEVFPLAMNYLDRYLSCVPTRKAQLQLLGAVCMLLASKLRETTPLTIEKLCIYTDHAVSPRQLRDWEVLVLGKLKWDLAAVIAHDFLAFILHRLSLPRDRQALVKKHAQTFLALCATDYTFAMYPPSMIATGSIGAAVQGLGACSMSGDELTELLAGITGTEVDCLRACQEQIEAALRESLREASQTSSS

CDK2 % Inhibition at 0.03 μM [1] [%] | CDK4 % Inhibition at 0.03 μM [2] [%] | Structure (SMILES) | HCT-116 % Inhibition at 0.1 μM [3] [%] | HCT-116 5 Inhibition at 0.25 μM [3]
12 | 21 | CNc1ccccc1C(=O)N1CCC(Nc2nc(N)c(C(=O)c3c(F)cccc3F)s2)CC1 [Example R112] | 39 | 93
44 | 48 | CC(=O)Oc1ccccc1C(=O)N1CCC(Nc2nc(N)c(C(=O)c3c(F)cccc3F)s2)CC1 [Example R113] | 0 | 40
60 | 65 | COc1ccccc1C(=O)N1CCC(Nc2nc(N)c(C(=O)c3c(F)cccc3F)s2)CC1 [Example R114] | 0 | 42
42 | 58 | COc1cccc(C(=O)N2CCC(Nc3nc(N)c(C(=O)c4c(F)cccc4F)s3)CC2)c1OC [Example R115] | 0 | 49
49 | 67 | COc1ccc(C(=O)N2CCC(Nc3nc(N)c(C(=O)c4c(F)cccc4F)s3)CC2)c(OC)c1 [Example R116] | 9 | 44
53 | 66 | COc1ccc(OC)c(C(=O)N2CCC(Nc3nc(N)c(C(=O)c4c(F)cccc4F)s3)CC2)c1 [Example R117] | 7 | 45
36 | 33 | COc1cccc(OC)c1C(=O)N1CCC(Nc2nc(N)c(C(=O)c3c(F)cccc3F)s2)CC1 [Example R118] | 7 | 47
27 | 31 | CCOc1ccccc1C(=O)N1CCC(Nc2nc(N)c(C(=O)c3c(F)cccc3F)s2)CC1 [Example R119] | 3 | 53
18 | 4 | Nc1nc(NC2CCN(C(=O)c3cc(Cl)ccc3O)CC2)sc1C(=O)c1c(F)cccc1F [Example R120] | 0 | 47
57 | 60 | COc1ccc(O)c(C(=O)N2CCC(Nc3nc(N)c(C(=O)c4c(F)cccc4F)s3)CC2)c1 [Example R121] | 0 | 37
61 | 67 | Cc1ccc(O)c(C(=O)N2CCC(Nc3nc(N)c(C(=O)c4c(F)cccc4F)s3)CC2)c1 [Example R122] | 0 | 48
5 | 39 | Nc1nc(NC2CCN(C(=O)c3ccccc3-c3ccccc3)CC2)sc1C(=O)c1c(F)cccc1F [Example R123] | 0 | 38
18 | 38 | Nc1nc(NC2CCN(C(=O)c3ccccc3C(F)(F)F)CC2)sc1C(=O)c1c(F)cccc1F [Example R124] | 0 | 35
18 | 33 | Cc1cccc(C(=O)N2CCC(Nc3nc(N)c(C(=O)c4c(F)cccc4F)s3)CC2)c1C [Example R125] | 0 | 42
43 | 57 | Cc1ccc(C(=O)N2CCC(Nc3nc(N)c(C(=O)c4c(F)cccc4F)s3)CC2)c(C)c1 [Example R126] | 0 | 33
28 | 20 | Cc1cc(C)c(C(=O)N2CCC(Nc3nc(N)c(C(=O)c4c(F)cccc4F)s3)CC2)c(C)c1 [Example R127] | 0 | 36
14 | 7 | Cc1ccc(C)c(C(=O)N2CCC(Nc3nc(N)c(C(=O)c4c(F)cccc4F)s3)CC2)c1 [Example R128] | 0 | 56
41 | 62 | N#Cc1cccc(C(=O)N2CCC(Nc3nc(N)c(C(=O)c4c(F)cccc4F)s3)CC2)c1 [Example R129] | 0 | 33

CDK2 % Inhibition at 0.03 μM [1] [%] | CDK4 % Inhibition at 0.03 μM [2] [%] | Structure (SMILES) | HCT-116 % Inhibition at 0.1 μM [3] [%] | HCT-116 5 Inhibition at 0.25 μM [3]
59 | 77 | Nc1nc(NC2CCN(C(=O)c3cccc(F)c3)CC2)sc1C(=O)c1c(F)cccc1F [Example R130] | 0 | 20
42 | 58 | Cc1ccc(C(=O)N2CCC(Nc3nc(N)c(C(=O)c4c(F)cccc4F)s3)CC2)cc1F [Example R131] | 1 | 44
28 | 55 | Nc1nc(NC2CCN(C(=O)c3cccc(Cl)c3)CC2)sc1C(=O)c1c(F)cccc1F [Example R132] | 15 | 60
21 | 52 | Nc1nc(NC2CCN(C(=O)c3ccc(Cl)c(Cl)c3)CC2)sc1C(=O)c1c(F)cccc1F [Example R133] | 5 | 56
29 | 51 | Nc1nc(NC2CCN(C(=O)c3cc(Cl)cc(Cl)c3)CC2)sc1C(=O)c1c(F)cccc1F [Example R134] | 45 | 95
27 | 50 | CN(C)c1cccc(C(=O)N2CCC(Nc3nc(N)c(C(=O)c4c(F)cccc4F)s3)CC2)c1 [Example R135] | 0 | 38
26 | 45 | COc1cccc(C(=O)N2CCC(Nc3nc(N)c(C(=O)c4c(F)cccc4F)s3)CC2)c1 [Example R136] | 0 | 37
55 | 73 | COc1cc(OC)cc(C(=O)N2CCC(Nc3nc(N)c(C(=O)c4c(F)cccc4F)s3)CC2)c1 [Example R137] | 0 | 38
67 | 70 | Nc1nc(NC2CCN(C(=O)c3cccc(O)c3)CC2)sc1C(=O)c1c(F)cccc1F [Example R138] | 0 | 40
50 | 75 | Nc1nc(NC2CCN(C(=O)c3cccc(C(F)(F)F)c3)CC2)sc1C(=O)c1c(F)cccc1F [Example R139] | 20 | 62
38 | 69 | Cc1cccc(C(=O)N2CCC(Nc3nc(N)c(C(=O)c4c(F)cccc4F)s3)CC2)c1 [Example R140] | 32 | 78
68 | 82 | Cc1ccc(C(=O)N2CCC(Nc3nc(N)c(C(=O)c4c(F)cccc4F)s3)CC2)cc1C [Example R141] | 33 | 77
67 | 83 | Cc1cc(C)cc(C(=O)N2CCC(Nc3nc(N)c(C(=O)c4c(F)cccc4F)s3)CC2)c1 [Example R142] | 86 | 99
30 | 59 | Nc1nc(NC2CCN(C(=O)c3ccc(F)cc3)CC2)sc1C(=O)c1c(F)cccc1F [Example R143] | 0 | 40
20 | 46 | Nc1nc(NC2CCN(C(=O)c3ccc(Cl)cc3)CC2)sc1C(=O)c1c(F)cccc1F [Example R144] | 0 | 38
45 | 53 | COc1cc(Cl)ccc1C(=O)N1CCC(Nc2nc(N)c(C(=O)c3c(F)cccc3F)s2)CC1 [Example R145] | 0 | 38
74 | 83 | CC(=O)Nc1ccc(C(=O)N2CCC(Nc3nc(N)c(C(=O)c4c(F)cccc4F)s3)CC2)cc1 [Example R146] | 0 | 10
63 | 78 | CNc1ccc(C(=O)N2CCC(Nc3nc(N)c(C(=O)c4c(F)cccc4F)s3)CC2)cc1 [Example R147] | 0 | 41
